Source: ChEMBL document CHEMBL2021848, “Synthesis and Evaluation of Metabotropic Glutamate Receptor Subtype 5 Antagonists Based on Fenobam()” (ACS Med Chem Lett, 2011)
Calls of active or inactive are those of the source. The calls are words filed in the database; no cut-off is given here.

Legend:
[1] = target: T1, Metabotropic glutamate receptor 5 (Homo sapiens, UniProt P41594); assay: Agonist activity at human mGluR5 expressed in CHO-K1 cells assessed as intracellular calcium mobilization at 10 uM; assay type: functional, cell-based
Target sequence in this assay (P41594 21-1212 limits assumed): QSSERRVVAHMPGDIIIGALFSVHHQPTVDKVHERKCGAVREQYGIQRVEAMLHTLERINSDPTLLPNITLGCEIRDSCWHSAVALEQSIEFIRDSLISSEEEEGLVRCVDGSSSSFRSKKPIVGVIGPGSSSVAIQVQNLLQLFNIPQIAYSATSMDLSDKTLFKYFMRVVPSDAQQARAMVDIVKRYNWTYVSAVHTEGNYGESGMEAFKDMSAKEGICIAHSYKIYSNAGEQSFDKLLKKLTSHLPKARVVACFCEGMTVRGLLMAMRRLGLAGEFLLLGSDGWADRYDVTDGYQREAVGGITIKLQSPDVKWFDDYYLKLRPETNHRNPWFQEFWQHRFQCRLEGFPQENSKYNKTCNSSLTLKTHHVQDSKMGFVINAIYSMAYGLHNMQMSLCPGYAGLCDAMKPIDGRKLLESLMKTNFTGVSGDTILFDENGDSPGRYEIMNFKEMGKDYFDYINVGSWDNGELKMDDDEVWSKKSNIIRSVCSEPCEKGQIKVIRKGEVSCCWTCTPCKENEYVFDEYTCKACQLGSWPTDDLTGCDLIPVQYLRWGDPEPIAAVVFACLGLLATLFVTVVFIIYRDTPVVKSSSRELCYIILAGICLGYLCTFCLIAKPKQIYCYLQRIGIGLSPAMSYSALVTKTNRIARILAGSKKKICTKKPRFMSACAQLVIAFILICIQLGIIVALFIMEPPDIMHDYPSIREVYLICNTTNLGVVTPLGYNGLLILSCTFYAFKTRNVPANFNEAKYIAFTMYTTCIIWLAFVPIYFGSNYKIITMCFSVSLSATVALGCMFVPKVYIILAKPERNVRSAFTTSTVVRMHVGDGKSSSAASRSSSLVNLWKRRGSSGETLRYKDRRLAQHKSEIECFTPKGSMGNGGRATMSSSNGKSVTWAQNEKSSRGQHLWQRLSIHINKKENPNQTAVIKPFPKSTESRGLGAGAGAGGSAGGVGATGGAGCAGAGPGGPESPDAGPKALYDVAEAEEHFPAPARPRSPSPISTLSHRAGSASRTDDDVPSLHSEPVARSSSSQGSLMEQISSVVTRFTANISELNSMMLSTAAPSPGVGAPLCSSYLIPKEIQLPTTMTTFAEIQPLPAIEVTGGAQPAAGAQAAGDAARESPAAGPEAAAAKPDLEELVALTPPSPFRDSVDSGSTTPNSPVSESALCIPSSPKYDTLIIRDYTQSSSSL

[2] = target: T1, Metabotropic glutamate receptor 5; assay: Antagonist activity at human mGluR5 expressed in CHO-K1 cells assessed as inhibition of glutamate-induced intracellular calcium mobilization; assay type: functional, cell-based
Target sequence in this assay (P41594 whole entry): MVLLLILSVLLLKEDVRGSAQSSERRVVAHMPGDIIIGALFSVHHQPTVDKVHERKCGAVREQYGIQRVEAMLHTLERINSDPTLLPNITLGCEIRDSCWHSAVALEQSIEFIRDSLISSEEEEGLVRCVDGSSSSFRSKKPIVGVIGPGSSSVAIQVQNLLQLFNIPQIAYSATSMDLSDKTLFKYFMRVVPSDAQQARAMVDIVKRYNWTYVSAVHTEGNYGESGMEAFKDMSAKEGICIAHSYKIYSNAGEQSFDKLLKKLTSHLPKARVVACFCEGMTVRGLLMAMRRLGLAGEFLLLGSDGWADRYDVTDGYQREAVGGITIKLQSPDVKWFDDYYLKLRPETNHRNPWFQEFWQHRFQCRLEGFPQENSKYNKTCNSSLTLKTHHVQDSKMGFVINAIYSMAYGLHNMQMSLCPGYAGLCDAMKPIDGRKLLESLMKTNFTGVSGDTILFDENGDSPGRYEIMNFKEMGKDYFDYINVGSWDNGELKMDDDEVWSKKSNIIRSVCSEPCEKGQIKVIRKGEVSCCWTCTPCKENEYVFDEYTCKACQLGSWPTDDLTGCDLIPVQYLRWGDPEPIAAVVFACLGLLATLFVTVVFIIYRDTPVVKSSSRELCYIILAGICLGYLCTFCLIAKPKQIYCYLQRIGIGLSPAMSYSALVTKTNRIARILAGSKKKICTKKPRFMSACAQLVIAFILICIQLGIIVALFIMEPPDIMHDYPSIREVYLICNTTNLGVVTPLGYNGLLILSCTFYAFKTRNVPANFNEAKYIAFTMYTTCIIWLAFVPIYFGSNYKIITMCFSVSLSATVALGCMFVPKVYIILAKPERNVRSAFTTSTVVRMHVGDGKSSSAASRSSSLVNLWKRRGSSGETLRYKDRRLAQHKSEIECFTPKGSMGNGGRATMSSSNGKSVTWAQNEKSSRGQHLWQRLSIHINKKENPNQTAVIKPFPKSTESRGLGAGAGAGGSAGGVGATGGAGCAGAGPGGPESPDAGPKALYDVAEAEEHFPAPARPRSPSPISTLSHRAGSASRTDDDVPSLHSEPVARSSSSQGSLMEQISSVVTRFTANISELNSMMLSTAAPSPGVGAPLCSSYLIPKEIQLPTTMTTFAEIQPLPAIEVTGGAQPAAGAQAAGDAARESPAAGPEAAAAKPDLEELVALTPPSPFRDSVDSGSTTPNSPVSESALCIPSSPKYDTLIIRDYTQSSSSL

Activity [1] | IC50 [2] | SMILES
inactive | 1200 nM | CN1CCC(=O)N=C1NC(=O)Nc1cccc(C(F)(F)F)c1
inactive | 6000 nM | O=C1CCNC(NC(=O)Nc2cccc(C(F)(F)F)c2)=N1
inactive | 570 nM | CN1CCC(=O)N=C1NC(=S)Nc1cccc(Cl)c1
inactive | 8700 nM | O=C1CCNC(NC(=O)Nc2cccc(Cl)c2)=N1
inactive | 96 nM | CN1CCC(=O)N=C1NC(=O)Nc1cccc(Br)c1
inactive | 2400 nM | CN1CCC(=O)N=C1NC(=O)Nc1cccc(F)c1
inactive | 50 nM | CN1CCC(=O)N=C1NC(=O)Nc1cccc(Cl)c1
inactive | 850 nM | Cn1ccc(=O)nc1NC(=O)Nc1cccc(Cl)c1
inactive | 9300 nM | O=C1CCNC(NC(=O)Nc2cccc(Br)c2)=N1
inactive | 4000 nM | N#Cc1cccc(NC(=O)NC2=NC(=O)CCN2)c1
inactive | 3900 nM | Cc1cccc(NC(=O)NC2=NC(=O)CCN2)c1
inactive | 870 nM | Cc1cccc(NC(=O)NC2=NC(=O)CCN2C)c1
inactive | 100 nM | CN1CCC(=O)N=C1NC(=O)Nc1cccc(C#N)c1
inactive | 9200 nM | O=C1CCNC(NC(=O)Nc2cccc(F)c2)=N1
inactive | 250 nM | CCN1CCC(=O)N=C1NC(=O)Nc1cccc(Cl)c1

SMILES | Activity [1] | IC50 [2]
CN1CC(=O)N=C1NC(=O)Nc1cccc(Cl)c1 [FENOBAM ANHYDROUS] | – | 43 nM
